Laboratory results reported in ChEMBL document CHEMBL4706736, “Modulating Androgen Receptor in the Therapeutic Intervention for Prostate Cancer and Kennedy's Disease” (2021).
Where a SMILES comes first, the peptide text is derived from it. [ ]: non-standard residue; d: D form. The star is where a group is joined. X1 = O=C(COc1c(-c2csc(N3CCOCC3)n2)ccc(F)c1F)NCCCCCCN*; X4 = O=C(COc1c(-c2csc(N3CCOCC3)n2)ccc(F)c1F)NCCCCN*; X2 = Fc1ccc(-c2csc(N3CCOCC3)n2)c(OCCOCCOCCN*)c1F; X3 = O=C(NCCCCCCN*)c1cccc2sc(N3CCOCC3)nc12; Dip = N[C@H](C(=O)O)C(c1ccccc1)c1ccccc1; Chg = N[C@H](C(=O)O)C1CCCCC1; NMeA = CN[C@@H](C)C(=O)O

Each compound was assayed on CWR22R (assay: Antiproliferative activity against human 22Rv1 cells assessed as reduction in cell viability at 10 uM incubated for 48 hrs by automated cell counting analysis relative to control).
Assay type: functional

Structure (SMILES) | inhibition at 10 µM
Cc1ncsc1-c1ccc([C@H](C)NC(=O)[C@@H]2C[C@@H](O)CN2C(=O)[C@@H](NC(=O)CCCCNC(=O)COc2c(-c3csc(N4CCOCC4)n3)ccc(F)c2F)C(C)(C)C)cc1 | < 50%
O=C1CCC(N2C(=O)c3cccc(NCCCCCCNC(=O)c4cn(-c5csc(N6CCOCC6)n5)cn4)c3C2=O)C(=O)N1 (stereo unspecified) | 0%
CN[C@@H](C)C(=O)N[C@H](C(=O)N1Cc2cc(OCCOCCOc3c(-c4csc(N5CCOCC5)n4)ccc(F)c3F)ccc2C[C@H]1C(=O)N[C@@H]1CCCc2ccccc21)C(C)(C)C | > 50%
COc1cc(C(=O)NCCOCCOCCOc2c(-c3csc(N4CCOCC4)n3)ccc(F)c2F)ccc1NC(=O)[C@@H]1N[C@@H](CC(C)(C)C)[C@](C#N)(c2ccc(Cl)cc2F)[C@H]1c1cccc(Cl)c1F | > 50%
CN[C@@H](C)C(=O)N[C@H](C(=O)N1CCC[C@H]1C(=O)N[C@H](C(=O)NCCCCNC(=O)COc1c(-c2csc(N3CCOCC3)n2)ccc(F)c1F)C(c1ccccc1)c1ccccc1)C1CCCCC1 (H-[NMeA][Chg]P[Dip]-X4) | > 50%
CN[C@@H](C)C(=O)N[C@H](C(=O)N1CCC[C@H]1C(=O)N[C@H](C(=O)NCCCCCCNC(=O)COc1c(-c2csc(N3CCOCC3)n2)ccc(F)c1F)C(c1ccccc1)c1ccccc1)C1CCCCC1 (H-[NMeA][Chg]P[Dip]-X1) | > 50%
CN[C@@H](C)C(=O)N[C@H](C(=O)N1CCC[C@H]1C(=O)N[C@H](C(=O)NCCCCCCNC(=O)c1cccc2sc(N3CCOCC3)nc12)C(c1ccccc1)c1ccccc1)C1CCCCC1 (H-[NMeA][Chg]P[Dip]-X3) | > 50%
NCCCCCCCCCCNc1cccc2c1C(=O)N(C1CCC(=O)NC1=O)C2=O (stereo unspecified) | < 50%
CN[C@@H](C)C(=O)N[C@H](C(=O)N1Cc2cc(OCCOCCOCCOc3c(-c4csc(N5CCOCC5)n4)ccc(F)c3F)ccc2C[C@H]1C(=O)N[C@@H]1CCCc2ccccc21)C(C)(C)C | > 50%
CN[C@@H](C)C(=O)N[C@H](C(=O)N1CCC[C@H]1C(=O)N[C@H](C(=O)NCCOCCOCCOc1c(-c2csc(N3CCOCC3)n2)ccc(F)c1F)C(c1ccccc1)c1ccccc1)C1CCCCC1 (H-[NMeA][Chg]P[Dip]-X2) | > 50%
COc1cc(C(=O)NCCCCNC(=O)COc2c(-c3csc(N4CCOCC4)n3)ccc(F)c2F)ccc1NC(=O)[C@@H]1N[C@@H](CC(C)(C)C)[C@](C#N)(c2ccc(Cl)cc2F)[C@H]1c1cccc(Cl)c1F | > 50%
